According to US20150148256A1, “BIOLUMINESCENCE IMAGING-BASED SCREENING ASSAY AND INHIBITORS OF ABCG2” (THE JOHNS HOPKINS UNIVERSITY, priority 2008, published 2015):
Counter-ions that a name gives are not always drawn. Like-named read-outs stand apart in the source and are kept apart here.

Experiments:
[1] = target: T1, ABCG2 (Homo sapiens, UniProt Q9UNQ0); experiment: Bioluminescence imaging (BLI) assay in HEK293/ABCG2/fLuc cells; conditions: for Fold (BLI enhancement), previously unknown compounds / Fold (BLI enhancement, S/B ratio over control): human
T1 sequence (Q9UNQ0 1-655): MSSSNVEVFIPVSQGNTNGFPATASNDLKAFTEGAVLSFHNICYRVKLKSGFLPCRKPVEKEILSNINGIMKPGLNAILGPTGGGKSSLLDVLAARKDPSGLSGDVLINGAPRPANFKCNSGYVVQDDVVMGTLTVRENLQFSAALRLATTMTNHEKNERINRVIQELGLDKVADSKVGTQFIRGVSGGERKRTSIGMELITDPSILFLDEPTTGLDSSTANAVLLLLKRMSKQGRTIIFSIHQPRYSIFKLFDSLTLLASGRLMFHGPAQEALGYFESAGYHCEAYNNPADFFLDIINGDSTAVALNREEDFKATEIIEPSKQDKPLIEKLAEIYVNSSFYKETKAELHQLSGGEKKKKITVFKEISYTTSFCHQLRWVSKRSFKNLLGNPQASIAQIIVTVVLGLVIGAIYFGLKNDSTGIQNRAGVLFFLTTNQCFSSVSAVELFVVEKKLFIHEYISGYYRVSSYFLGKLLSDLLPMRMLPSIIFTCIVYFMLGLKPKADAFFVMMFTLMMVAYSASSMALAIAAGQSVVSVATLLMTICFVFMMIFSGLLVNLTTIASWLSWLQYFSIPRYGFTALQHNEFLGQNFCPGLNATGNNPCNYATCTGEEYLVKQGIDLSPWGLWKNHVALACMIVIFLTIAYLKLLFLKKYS
How it was run: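 Light output from HEK293/ABCG2/fLuc cells plated at 4×10^4 per well, treated with compounds, imaged every 5 min for ~1 h. Values are signal-to-background ratios versus solvent control at 40 min, indicating ABCG2 inhibition. Dose range 0.001 μM-100 μM with 50 μg/mL D-luciferin for selected compounds.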

[2] = system: ABCG2-overexpressing NCI-H460/MX20 cells; conditions: for MTX (mitoxantrone resensitization assay): H460/MX20 cells with MTX
[3] = target: T1, ABCG2; set-up: expressed in transfected cells; host or cells: HEK293; conditions: read-out: IC50, ability to inhibit ATPase, cited from earlier work
[4] = target: T1, ABCG2; set-up: expressed in transfected cells; host or cells: HEK293; conditions: reference (23); read-out: IC50, pheophorbide A fluorescent dye uptake assay; cited from earlier work
[5] = target: T1, ABCG2; set-up: expressed in transfected cells; host or cells: HEK293; conditions: cited from earlier work
[6] = system: NCI-H460 parent line; experiment: MTX survival of parent NCI-H460 cells (XTT); type: cell-based, human; conditions: three days
[7] = target: T2, MRP1 (Multiple Drug Resistance Protein 1) (Homo sapiens, UniProt P33527); experiment: Colchicine resensitization assay in MDCKII cells overexpressing MRP1; type: cell-based; conditions: even at relatively high concentration (30 μM)
T2 construct: expressed in transfected cells; host or cells: MDCKII
T2 sequence (P33527 whole entry): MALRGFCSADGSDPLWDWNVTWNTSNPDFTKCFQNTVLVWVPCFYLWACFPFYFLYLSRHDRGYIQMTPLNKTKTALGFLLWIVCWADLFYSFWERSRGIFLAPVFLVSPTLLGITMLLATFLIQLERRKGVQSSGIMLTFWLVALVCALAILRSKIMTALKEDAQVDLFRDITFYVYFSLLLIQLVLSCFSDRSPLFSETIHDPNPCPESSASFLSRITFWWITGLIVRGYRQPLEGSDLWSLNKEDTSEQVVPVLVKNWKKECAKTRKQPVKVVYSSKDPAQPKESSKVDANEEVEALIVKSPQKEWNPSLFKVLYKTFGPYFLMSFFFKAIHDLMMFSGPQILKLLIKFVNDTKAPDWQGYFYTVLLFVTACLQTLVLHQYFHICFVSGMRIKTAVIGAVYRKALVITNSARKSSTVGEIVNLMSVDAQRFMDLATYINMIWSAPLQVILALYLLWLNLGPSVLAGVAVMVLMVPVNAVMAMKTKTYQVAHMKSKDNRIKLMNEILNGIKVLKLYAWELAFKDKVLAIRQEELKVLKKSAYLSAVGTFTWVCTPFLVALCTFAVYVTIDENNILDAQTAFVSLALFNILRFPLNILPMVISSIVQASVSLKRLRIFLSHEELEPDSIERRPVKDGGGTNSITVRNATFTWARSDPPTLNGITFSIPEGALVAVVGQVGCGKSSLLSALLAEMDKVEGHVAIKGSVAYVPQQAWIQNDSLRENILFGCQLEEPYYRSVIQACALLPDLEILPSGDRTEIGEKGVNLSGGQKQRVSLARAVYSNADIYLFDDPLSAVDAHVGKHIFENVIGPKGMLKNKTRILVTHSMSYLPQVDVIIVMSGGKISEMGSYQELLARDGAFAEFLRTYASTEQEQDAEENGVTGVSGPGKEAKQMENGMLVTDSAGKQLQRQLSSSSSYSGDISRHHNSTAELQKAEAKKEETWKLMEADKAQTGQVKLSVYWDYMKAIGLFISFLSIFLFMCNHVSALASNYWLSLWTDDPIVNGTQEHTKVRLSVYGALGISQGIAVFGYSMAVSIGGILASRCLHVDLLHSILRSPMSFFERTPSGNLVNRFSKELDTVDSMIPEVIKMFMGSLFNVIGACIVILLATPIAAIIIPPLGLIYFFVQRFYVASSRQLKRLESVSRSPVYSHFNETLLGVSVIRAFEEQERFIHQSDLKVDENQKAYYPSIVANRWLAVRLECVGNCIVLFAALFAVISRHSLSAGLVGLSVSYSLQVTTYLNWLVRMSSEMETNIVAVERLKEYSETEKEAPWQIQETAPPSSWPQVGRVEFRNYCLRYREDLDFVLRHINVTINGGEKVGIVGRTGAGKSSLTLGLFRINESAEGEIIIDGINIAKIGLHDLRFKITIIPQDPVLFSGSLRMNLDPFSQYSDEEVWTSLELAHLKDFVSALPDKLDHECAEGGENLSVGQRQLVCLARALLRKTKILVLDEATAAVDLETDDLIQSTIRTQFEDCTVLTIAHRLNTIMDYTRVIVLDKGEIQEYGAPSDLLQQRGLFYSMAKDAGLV
Experimental: The ABC transporter-inhibiting ability of the potential inhibitors identified were further tested by evaluating their ability to resensitize ABCG2-overexpressing NCI-H460/MX20 cells to MTX, or MDCKII cells overexpressing Pgp or MRP1, to Col. Cells were plated in 96-well plates at 1×10^4 per well and allowed to attach. […] Colchicine was added at 1 μM for MDCKII/Pgp cells and 0.3 μM for MDCKII/MRP1 cells. […] In brief, 1 mg/ml XTT (Polysciences, Warrington, Pa.) was mixed with 0.025 mM PMS (Sigma), and 50 μl of the mixture was added to each well and incubated for 4 hours at 37° C. After the plates were mixed on a plate shaker, absorbance at 450 nm was measured. All results were normalized to a percentage of absorbance obtained in controls.
MDCKII cells overexpressing Pgp or MRP1 were incubated for two days in medium containing 1 μM (for Pgp) or 0.3 μM (for MRP1) Col and increasing concentrations of each ABCG2 inhibitor.

COc1ccc2c3c([nH]c2c1)[C@H](C=C(C)C)N1C(=O)[C@@H]2CCCN2C(=O)[C@@H]1C3 [FTC, Fumitremorgin C]
IC50 ([1]; read-out: IC50 as an ABCG2 inhibitor (BLI), same assay, using the 30 min data): 6.6 µM | resensitization of H460/MX20 cells to MTX ([2]; FTC positive control (10 μM), MTX 15 or 30 μM, three days): restored the sensitivity of H460/MX20 cells to MTX and significantly reduced their survival rate | IC50 ([3]; Ozvegy et al. (21)): 1.3 µM | IC50 ([3]; Ozvegy et al. (22)): 0.4 µM | IC50 ([3]; Robey et al. (13)): 1 µM | IC50 [4]: 0.8 µM | IC50 ([5]; literature, read-out: IC50 values reported in literature): 0.3 to 1.3 µM | concentration at which the plateau of the ABCG2-inhibiting effect is reached ([5]; previous reports): 10 µM

O=C1c2c(O)ccc(O)c2C(=O)c2c(NCCNCCO)ccc(NCCNCCO)c21 [MTX, mitoxantrone]
survival of parent cells ([6]; 15 μM MTX alone): < 20% | survival of parent cells ([6]; 30 μM MTX alone): ~9% | survival of H460/MX20 cells ([2]; 15 μM MTX alone, three days): 80% | survival of H460/MX20 cells ([2]; 30 μM MTX alone, three days): ~40%

CC(=O)c1ccc2c(c1)N(CCCN(C)C)c1ccccc1S2 [acepromazine]
Fold (BLI enhancement), previously unknown compounds ([1]; 40 min, 17 μM): 6.2 fold | Fold (BLI enhancement, S/B ratio over control) ([1]; 40 min, 17 μM): 6.2 fold | MTX (mitoxantrone resensitization assay) [2]: Y

CCCCCCCCCCCCOCCOCCOCCOCCO [brij, Brij 30]
resensitization of H460/MX20 cells to MTX ([2]; after two days of incubation (data not shown)): resensitize H460/MX20 cells to MTX significantly

COc1cc(N)c(Cl)cc1C(=O)NC1CCN(Cc2ccccc2)CC1 [clebopride maleate]
IC50 [1]: 8.2 µM | Fold (BLI enhancement), previously unknown compounds ([1]; 40 min, 17 μM): 7.9 fold | Fold (BLI enhancement, S/B ratio over control) ([1]; 40 min, 17 μM): 7.9 fold | MRP1 inhibition [7]: weak | MTX (mitoxantrone resensitization assay) [2]: Y

CCN(CC)CCOc1ccc(C(=C(Cl)c2ccccc2)c2ccccc2)cc1 [clomiphene citrate]
Fold (BLI enhancement), previously unknown compounds ([1]; 40 min, 17 μM): 6.7 fold | Fold (BLI enhancement, S/B ratio over control) ([1]; 40 min, 17 μM): 6.7 fold | resensitization of H460/MX20 cells to MTX ([2]; compound 1 μM with 15 μM MTX, two days): showed resensitization of H460/MX20 cells to MTX

C[C@H]1O[C@@H](O[C@H]2[C@@H](O)C[C@H](O[C@H]3[C@@H](O)C[C@H](O[C@H]4CC[C@@]5(C)[C@H](CC[C@@H]6[C@@H]5CC[C@]5(C)[C@@H](C7=CC(=O)OC7)CC[C@]65O)C4)O[C@@H]3C)O[C@@H]2C)C[C@H](O)[C@@H]1O [digitoxin]
BLI signal enhancement at lower concentrations [1]: enhance BLI signal minimally | Fold (BLI enhancement), previously unknown compounds [1]: 5.7 fold | Fold (BLI enhancement, S/B ratio over control) [1]: 5.7 fold | reduction of survival rate of H460/MX20 cells [2]: did not reduce the survival rate of H460/MX20 cells significantly

Cc1c(-c2ccccc2)oc2c(C(=O)OCCN3CCCCC3)cccc2c1=O [flavoxate hydrochloride]
IC50 [1]: 20 µM | Fold (BLI enhancement), previously unknown compounds ([1]; 40 min, 17 μM): 11.2 fold | Fold (BLI enhancement, S/B ratio over control) ([1]; 40 min, 17 μM): 11.2 fold | MRP1 inhibition [7]: weak | MTX (mitoxantrone resensitization assay) [2]: Y

CC(C)C(=O)Nc1ccc([N+](=O)[O-])c(C(F)(F)F)c1 [flutamide]
Fold (BLI enhancement), previously unknown compounds ([1]; 40 min, 17 μM): 6.1 fold | Fold (BLI enhancement, S/B ratio over control) ([1]; 40 min, 17 μM): 6.1 fold | MTX (mitoxantrone resensitization assay) [2]: Y
